What was measured:
[1] = Genotoxicity in Salmonella typhimurium TA1535/pSK1002 assessed as DNA-damage activity by measuring beta-galactosidase activity at 7.5 ug/ml measured by SOS-chromotest relative to solvent control; assay type: toxicity; conditions: salmonella enterica subsp. enterica serovar typhimurium; dose 7.5 µg/ml
Staphylococcus aureus [2] = assay: Antibacterial activity against clinical isolate methicillin-resistant Staphylococcus aureus 1065 measured after 24 hrs by broth microdilution method; assay type: functional
[3] = Genotoxicity in Salmonella typhimurium TA1535/pSK1002 assessed as DNA-damage activity by measuring beta-galactosidase activity at 750 ug/ml measured by SOS-chromotest relative to solvent control; assay type: toxicity; conditions: salmonella enterica subsp. enterica serovar typhimurium; dose 750 µg/ml
[4] = Genotoxicity in Salmonella typhimurium TA1535/pSK1002 assessed as DNA-damage activity by measuring beta-galactosidase activity at 75 ug/ml measured by SOS-chromotest relative to solvent control; assay type: toxicity; conditions: salmonella enterica subsp. enterica serovar typhimurium; dose 75 µg/ml
Proteus sp. = assay: Antibacterial activity against clinical isolate Proteus sp. 17 measured after 24 hrs by broth microdilution method; assay type: functional; conditions: Proteus sp. (in: enterobacteria)
Micrococcus luteus = assay: Antibacterial activity against Micrococcus luteus clinical isolate measured after 24 hrs by broth microdilution method; assay type: functional
Acinetobacter sp. = assay: Antibacterial activity against clinical isolate Acinetobacter sp. 3 measured after 24 hrs by broth microdilution method; assay type: functional
[5] = tested on: Staphylococcus ureilyticus; assay: Antibacterial activity against clinical isolate Staphylococcus ureilyticus 1972 measured after 24 hrs by broth microdilution method; assay type: functional
[6] = Cytotoxicity against human skin fibroblasts assessed as cell viability measured after 72 hrs by MTT assay; assay type: cell-based, Fibroblast
[7] = Genotoxicity in Salmonella typhimurium TA100 assessed as number of revertant by Ames spot test relative to solvent control; assay type: toxicity; conditions: salmonella enterica subsp. enterica serovar typhimurium
[8] = Cytotoxicity against human mesenchymal stem cells assessed as cell viability measured after 72 hrs by MTT assay; assay type: cell-based
[9] = Cytotoxicity against human HEK293 cells assessed as cell viability measured after 72 hrs by MTT assay; assay type: cell-based
Enterococcus faecalis [10] = assay: Antibacterial activity against clinical isolate Enterococcus faecalis 23 measured after 24 hrs by broth microdilution method; assay type: functional
Escherichia coli [11] = assay: Antibacterial activity against clinical isolate Escherichia coli 718 measured after 24 hrs by broth microdilution method; assay type: functional
Staphylococcus aureus [12] = assay: Antibacterial activity against clinical isolate methicillin-resistant Staphylococcus aureus 713 measured after 24 hrs by broth microdilution method; assay type: functional
[13] = tested on: Staphylococcus intermedius; assay: Antibacterial activity against clinical isolate methicillin-resistant Staphylococcus intermedius 1143 measured after 24 hrs by broth microdilution method; assay type: functional
[14] = Genotoxicity in Salmonella typhimurium TA1537 assessed as number of revertant by Ames spot test relative to solvent control; assay type: toxicity; conditions: salmonella enterica subsp. enterica serovar typhimurium
[15] = Genotoxicity in Salmonella typhimurium TA1535 assessed as number of revertant by Ames spot test relative to solvent control; assay type: toxicity; conditions: salmonella enterica subsp. enterica serovar typhimurium
Staphylococcus aureus [16] = assay: Antibacterial activity against clinical isolate methicillin-resistant Staphylococcus aureus 983 measured after 24 hrs by broth microdilution method; assay type: functional
Klebsiella sp. = assay: Antibacterial activity against clinical isolate Klebsiella sp. 11 measured after 24 hrs by broth microdilution method; assay type: functional
Escherichia coli [17] = assay: Antibacterial activity against Escherichia coli MG 1655 measured after 24 hrs by broth microdilution method; assay type: functional
Klebsiella pneumoniae = assay: Antibacterial activity against clinical isolate Klebsiella pneumoniae 1813 measured after 24 hrs by broth microdilution method; assay type: functional
Staphylococcus aureus [18] = assay: Antibacterial activity against clinical isolate methicillin-resistant Staphylococcus aureus 1053 measured after 24 hrs by broth microdilution method; assay type: functional
Pseudomonas aeruginosa [19] = assay: Antibacterial activity against Pseudomonas aeruginosa ATCC 27853 measured after 24 hrs by broth microdilution method; assay type: functional
[20] = tested on: Staphylococcus intermedius; assay: Antibacterial activity against clinical isolate methicillin-resistant Staphylococcus intermedius 1061 measured after 24 hrs by broth microdilution method; assay type: functional
[21] = Genotoxicity in Salmonella typhimurium TA98 assessed as number of revertant by Ames spot test relative to solvent control; assay type: toxicity; conditions: salmonella enterica subsp. enterica serovar typhimurium
Moraxella = assay: Antibacterial activity against clinical isolate Moraxella 765 measured after 24 hrs by broth microdilution method; assay type: functional
Serratia marcescens = assay: Antibacterial activity against clinical isolate Serratia marcescens 1966 measured after 24 hrs by broth microdilution method; assay type: functional
Enterococcus faecalis [22] = assay: Antibacterial activity against clinical isolate Enterococcus faecalis 3063 measured after 24 hrs by broth microdilution method; assay type: functional
[23] = Lipophilicity, logP of the compound; assay type: physicochemical; conditions: octanol/water
Staphylococcus aureus [24] = assay: Antibacterial activity against clinical isolate methicillin-resistant Staphylococcus aureus 1131 measured after 24 hrs by broth microdilution method; assay type: functional
Pseudomonas aeruginosa [25] = assay: Antibacterial activity against clinical isolate Pseudomonas aeruginosa 1945 measured after 24 hrs by broth microdilution method; assay type: functional
Pseudomonas sp. = assay: Antibacterial activity against clinical isolate Pseudomonas sp. 5 measured after 24 hrs by broth microdilution method; assay type: functional
Staphylococcus aureus [26] = assay: Antibacterial activity against Staphylococcus aureus ATCC 29213 measured after 24 hrs by broth microdilution method; assay type: functional
[27] = Genotoxicity in Salmonella typhimurium TA1535/pSK1002 assessed as DNA-damage activity by measuring beta-galactosidase activity at 150 ug/ml measured by SOS-chromotest relative to solvent control; assay type: toxicity; conditions: salmonella enterica subsp. enterica serovar typhimurium; dose 150 µg/ml
[28] = Genotoxicity in Salmonella typhimurium TA1535/pSK1002 assessed as DNA-damage activity by measuring beta-galactosidase activity at 15 ug/ml measured by SOS-chromotest relative to solvent control; assay type: toxicity; conditions: salmonella enterica subsp. enterica serovar typhimurium; dose 15 µg/ml
Staphylococcus aureus [29] = assay: Antibacterial activity against clinical isolate Staphylococcus aureus 25 measured after 24 hrs by broth microdilution method; assay type: functional
Bacillus subtilis = assay: Antibacterial activity against Bacillus subtilis 168 measured after 24 hrs by broth microdilution method; assay type: functional

SMILES	MIC (Staphylococcus aureus [2]) [µg/mL]	MIC (Proteus sp.) [µg/mL]	MIC (Micrococcus luteus) [µg/mL]	MIC (Acinetobacter sp.) [µg/mL]	MIC [5] [µg/mL]	MIC (Enterococcus faecalis [10]) [µg/mL]	MIC (Escherichia coli [11]) [µg/mL]	MIC (Staphylococcus aureus [12]) [µg/mL]	MIC [13] [µg/mL]	MIC (Staphylococcus aureus [16]) [µg/mL]	MIC (Klebsiella sp.) [µg/mL]	MIC (Escherichia coli [17]) [µg/mL]	MIC (Klebsiella pneumoniae) [µg/mL]	MIC (Staphylococcus aureus [18]) [µg/mL]	MIC (Pseudomonas aeruginosa [19]) [µg/mL]	MIC [20] [µg/mL]	MIC (Moraxella) [µg/mL]	MIC (Serratia marcescens) [µg/mL]	MIC (Enterococcus faecalis [22]) [µg/mL]	logP [23]	further results
CCCCCCCCCCCCCC(=O)NCC[N+](C)(C)Cc1cnc(C)c2c1COC(C)(CCC)O2.[Cl-] (stereo not given)	2	> 64	1	32	> 64	1	8	2	2	16	32	32	8	1	8	2	16	64	1	2.24	Ratio [1]: 1.5; Ratio [3]: 0.3; Ratio [4]: 0.9; CC50 at 72 h [6]: 2.15 µg/mL; Ratio [7]: 0.7; CC50 at 72 h [8]: 1.38 µg/mL; CC50 at 72 h [9]: 1.16 µg/mL; Ratio [14]: 0.03; Ratio [15]: 0.5; Ratio [21]: 4.4; MIC (Staphylococcus aureus [24]): 2 µg/mL; MIC (Pseudomonas aeruginosa [25]): 64 µg/mL; MIC (Pseudomonas sp.): 32 µg/mL; MIC (Staphylococcus aureus [26]): 1 µg/mL; Ratio [27]: 0.5; Ratio [28]: 1.6; MIC (Staphylococcus aureus [29]): 2 µg/mL; MIC (Bacillus subtilis): 2 µg/mL
CCCCCCCCCCCCCCCCCC(=O)NCCC[N+](C)(C)Cc1cnc(C)c2c1COC(C)(C)O2.[Cl-]	8	> 64	4	64	> 64	4	> 64	16	16	64	64	> 64	> 64	8	8	8	> 64	> 64	4	3.25	MIC (Staphylococcus aureus [24]): 16 µg/mL; MIC (Pseudomonas aeruginosa [25]): > 64 µg/mL; MIC (Pseudomonas sp.): 64 µg/mL; MIC (Staphylococcus aureus [26]): 4 µg/mL; MIC (Staphylococcus aureus [29]): 8 µg/mL; MIC (Bacillus subtilis): 8 µg/mL
CCCCCCCCCCCCCC(=O)NCC[N+](C)(C)Cc1cnc(C)c2c1COC(C)(C)O2.[Cl-]	8	> 64	4	64	64	2	32	4	4	64	64	8	4	4	2	4	64	64	2	1.41	Ratio [1]: 1.5; Ratio [3]: 0.4; Ratio [4]: 0.7; CC50 at 72 h [6]: 3.03 µg/mL; Ratio [7]: 1.3; CC50 at 72 h [8]: 2.16 µg/mL; CC50 at 72 h [9]: 1.18 µg/mL; Ratio [14]: 0.06; Ratio [15]: 0.8; Ratio [21]: 1.7; MIC (Staphylococcus aureus [24]): 16 µg/mL; MIC (Pseudomonas aeruginosa [25]): 64 µg/mL; MIC (Pseudomonas sp.): 64 µg/mL; MIC (Staphylococcus aureus [26]): 2 µg/mL; Ratio [27]: 0.5; Ratio [28]: 1.5; MIC (Staphylococcus aureus [29]): 4 µg/mL; MIC (Bacillus subtilis): 4 µg/mL
CCCCCCCCCCCC(=O)OCCC[N+](C)(C)Cc1cnc(C)c2c1COC(CCC)O2.[Cl-] (stereo not given)	16	> 64	1	64	> 64	4	8	16	16	32	32	4	> 64	8	32	16	64	> 64	4	2.14	Ratio [1]: 1.4; Ratio [3]: 0.5; Ratio [4]: 1.5; CC50 at 72 h [6]: 4.32 µg/mL; Ratio [7]: 2.4; CC50 at 72 h [8]: 2.42 µg/mL; CC50 at 72 h [9]: 2.15 µg/mL; Ratio [14]: 0.03; Ratio [15]: 0.5; Ratio [21]: 1.8; MIC (Staphylococcus aureus [24]): 16 µg/mL; MIC (Pseudomonas aeruginosa [25]): > 64 µg/mL; MIC (Pseudomonas sp.): 32 µg/mL; MIC (Staphylococcus aureus [26]): 2 µg/mL; Ratio [27]: 1.1; Ratio [28]: 1.4; MIC (Staphylococcus aureus [29]): 8 µg/mL; MIC (Bacillus subtilis): 2 µg/mL

Source: ChEMBL document CHEMBL4819019, “Design, synthesis, antibacterial activity and toxicity of novel quaternary ammonium compounds based on pyridoxine and fatty acids” (Eur J Med Chem, 2021)
